Common to all, as to assay: Kinase panel (mobility shift)
Common to all, as to format: biochemical

One test has as its target BRK (Homo sapiens, UniProt Q13882). How it is done:
(§1) The disclosed compounds were tested for activity against a panel of 299 kinases. The target enzyme was incubated with fluorescently labeled substrate and test compounds in a standardized reaction mixture in 384 well plates. Upon termination of the reaction, samples were introduced onto microfluidic chips. The samples migrated through channels in the chips and product and substrate were separated based on the difference in their charge (electrophoretic mobility shift). Enzyme activity was measured by direct comparison of the fluorescence in the product and substrate peaks. […] In the tables A=95% or greater at 5 um, B=90%-94% at 5 um, and C=80%-89% at 5 um. [note to draft: we included category D for 50-79 and category E is less than 50%. Feel free to remove if not needed)

The next test has as its target EPH-A5 (Homo sapiens, UniProt P54756). The settings on record: at 5 um. How it is done:
as §1

In another test the target is T1, EPH-B2 (Homo sapiens, UniProt P29323).
T1 sequence (P29323 19-1055): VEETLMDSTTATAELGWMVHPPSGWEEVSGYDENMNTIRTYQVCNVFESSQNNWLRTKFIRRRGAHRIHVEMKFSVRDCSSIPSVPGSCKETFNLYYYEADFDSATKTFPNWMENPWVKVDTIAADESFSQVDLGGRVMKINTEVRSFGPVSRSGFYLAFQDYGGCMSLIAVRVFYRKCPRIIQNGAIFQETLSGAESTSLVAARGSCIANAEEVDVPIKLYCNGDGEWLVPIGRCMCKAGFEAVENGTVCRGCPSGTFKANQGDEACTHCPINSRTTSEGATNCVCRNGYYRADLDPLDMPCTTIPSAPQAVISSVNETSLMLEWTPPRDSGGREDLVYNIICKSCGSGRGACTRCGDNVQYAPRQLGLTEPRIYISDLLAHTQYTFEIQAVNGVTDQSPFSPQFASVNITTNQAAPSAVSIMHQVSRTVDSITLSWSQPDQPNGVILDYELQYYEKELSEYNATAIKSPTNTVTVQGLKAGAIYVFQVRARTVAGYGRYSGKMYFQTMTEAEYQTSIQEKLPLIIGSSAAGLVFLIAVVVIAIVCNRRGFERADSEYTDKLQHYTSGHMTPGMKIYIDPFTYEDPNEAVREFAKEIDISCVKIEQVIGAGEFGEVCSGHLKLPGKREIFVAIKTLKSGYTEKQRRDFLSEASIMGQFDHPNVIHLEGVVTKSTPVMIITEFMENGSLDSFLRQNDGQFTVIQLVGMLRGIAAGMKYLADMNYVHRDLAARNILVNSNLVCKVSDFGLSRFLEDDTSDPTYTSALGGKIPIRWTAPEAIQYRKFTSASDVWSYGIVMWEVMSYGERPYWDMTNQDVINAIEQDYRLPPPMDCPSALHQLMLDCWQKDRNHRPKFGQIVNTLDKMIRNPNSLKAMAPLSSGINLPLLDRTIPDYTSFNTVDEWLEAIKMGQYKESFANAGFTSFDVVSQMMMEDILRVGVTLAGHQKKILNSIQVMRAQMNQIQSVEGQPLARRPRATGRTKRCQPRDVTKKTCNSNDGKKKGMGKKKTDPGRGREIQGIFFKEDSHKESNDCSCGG
The settings on record: at 5 um. The procedure:
as §1

Another test deals with T2, EPH-B4 (Homo sapiens, UniProt P54760).
T2 sequence (P54760 16-987): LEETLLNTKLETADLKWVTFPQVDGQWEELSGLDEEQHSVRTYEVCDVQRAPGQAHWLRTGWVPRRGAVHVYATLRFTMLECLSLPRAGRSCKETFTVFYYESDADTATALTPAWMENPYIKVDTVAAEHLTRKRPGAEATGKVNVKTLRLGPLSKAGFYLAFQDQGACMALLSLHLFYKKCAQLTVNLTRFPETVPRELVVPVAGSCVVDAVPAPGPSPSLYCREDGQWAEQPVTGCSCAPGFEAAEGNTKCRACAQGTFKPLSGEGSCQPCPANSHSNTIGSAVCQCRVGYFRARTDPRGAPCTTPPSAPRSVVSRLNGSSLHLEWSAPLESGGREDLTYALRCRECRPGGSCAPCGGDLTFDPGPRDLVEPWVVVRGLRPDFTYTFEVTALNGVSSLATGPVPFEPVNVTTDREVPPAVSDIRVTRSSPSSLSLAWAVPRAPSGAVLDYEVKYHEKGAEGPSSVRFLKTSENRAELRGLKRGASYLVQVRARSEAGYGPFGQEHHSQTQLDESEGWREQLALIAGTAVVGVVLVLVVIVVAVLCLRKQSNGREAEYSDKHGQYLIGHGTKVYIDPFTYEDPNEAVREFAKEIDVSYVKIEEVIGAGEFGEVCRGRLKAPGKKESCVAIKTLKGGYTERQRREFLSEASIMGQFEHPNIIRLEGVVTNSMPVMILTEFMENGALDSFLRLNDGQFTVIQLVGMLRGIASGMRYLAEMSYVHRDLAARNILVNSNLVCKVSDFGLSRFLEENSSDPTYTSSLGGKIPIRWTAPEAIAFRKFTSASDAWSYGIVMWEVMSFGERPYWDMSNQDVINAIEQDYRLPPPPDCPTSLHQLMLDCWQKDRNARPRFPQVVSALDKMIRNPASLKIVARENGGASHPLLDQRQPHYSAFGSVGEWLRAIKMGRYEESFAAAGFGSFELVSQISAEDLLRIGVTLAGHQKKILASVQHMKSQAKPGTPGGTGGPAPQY
The procedure: as §1

A further test has as its target HIPK3 (Homo sapiens, UniProt Q9H422). How it is done:
as §1

The target of the next test is LCK (Homo sapiens, UniProt P06239). The procedure:
as §1

In the next test the target is LOK (Homo sapiens, UniProt O94804). The settings on record: at 5 um. The procedure: as §1
The next test addresses P38-b (Homo sapiens, UniProt Q15759). How it is done: as §1
In a further test the target is TRKA (Homo sapiens, UniProt P04629). How it is done:
as §1

One may read the inhibition as the drop in the measured response relative to a control, in per cent.

Chain of TRKA (P04629 33-796, species assumed): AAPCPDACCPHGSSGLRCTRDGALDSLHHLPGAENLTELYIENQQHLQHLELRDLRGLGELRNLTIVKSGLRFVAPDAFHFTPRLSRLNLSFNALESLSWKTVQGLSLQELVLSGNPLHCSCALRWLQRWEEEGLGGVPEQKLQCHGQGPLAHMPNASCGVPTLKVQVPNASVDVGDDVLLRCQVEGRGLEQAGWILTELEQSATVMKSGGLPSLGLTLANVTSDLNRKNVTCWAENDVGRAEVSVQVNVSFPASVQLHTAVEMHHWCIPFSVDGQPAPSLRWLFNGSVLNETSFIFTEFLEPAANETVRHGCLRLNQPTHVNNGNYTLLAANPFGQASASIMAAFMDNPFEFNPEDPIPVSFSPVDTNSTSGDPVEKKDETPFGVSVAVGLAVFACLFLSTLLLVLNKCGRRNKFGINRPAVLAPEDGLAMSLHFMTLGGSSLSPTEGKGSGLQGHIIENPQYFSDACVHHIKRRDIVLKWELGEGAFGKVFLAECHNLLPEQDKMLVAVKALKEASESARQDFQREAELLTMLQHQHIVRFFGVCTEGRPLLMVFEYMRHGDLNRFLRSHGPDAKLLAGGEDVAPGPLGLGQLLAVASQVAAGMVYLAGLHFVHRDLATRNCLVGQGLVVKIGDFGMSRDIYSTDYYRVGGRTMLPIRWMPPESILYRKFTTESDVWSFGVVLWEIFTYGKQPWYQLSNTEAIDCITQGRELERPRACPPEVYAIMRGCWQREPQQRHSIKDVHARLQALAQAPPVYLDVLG
Chain of P38-b (Q15759 whole entry, species assumed): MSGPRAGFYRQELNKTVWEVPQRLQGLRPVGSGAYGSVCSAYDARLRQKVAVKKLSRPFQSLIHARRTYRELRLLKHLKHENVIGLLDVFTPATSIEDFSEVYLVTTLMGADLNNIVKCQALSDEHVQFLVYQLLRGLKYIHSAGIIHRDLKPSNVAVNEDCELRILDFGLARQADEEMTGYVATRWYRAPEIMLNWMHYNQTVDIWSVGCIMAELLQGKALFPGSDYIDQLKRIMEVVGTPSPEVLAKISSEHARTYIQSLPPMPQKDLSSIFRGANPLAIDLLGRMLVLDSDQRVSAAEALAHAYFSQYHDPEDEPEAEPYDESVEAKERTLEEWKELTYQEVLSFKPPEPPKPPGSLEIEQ
Chain of BRK (Q13882 whole entry, species assumed): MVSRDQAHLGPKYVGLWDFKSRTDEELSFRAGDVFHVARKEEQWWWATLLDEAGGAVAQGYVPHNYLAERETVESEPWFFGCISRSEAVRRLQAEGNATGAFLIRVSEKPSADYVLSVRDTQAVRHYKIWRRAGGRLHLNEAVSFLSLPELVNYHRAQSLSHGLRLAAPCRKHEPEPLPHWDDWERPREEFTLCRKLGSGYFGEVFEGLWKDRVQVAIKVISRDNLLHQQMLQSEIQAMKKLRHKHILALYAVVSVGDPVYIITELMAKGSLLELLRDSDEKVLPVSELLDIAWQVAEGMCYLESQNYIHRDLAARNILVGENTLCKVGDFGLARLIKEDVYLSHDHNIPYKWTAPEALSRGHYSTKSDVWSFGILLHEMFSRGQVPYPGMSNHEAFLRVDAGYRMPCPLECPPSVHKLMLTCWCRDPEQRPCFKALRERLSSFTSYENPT
Chain of HIPK3 (Q9H422 whole entry, species assumed): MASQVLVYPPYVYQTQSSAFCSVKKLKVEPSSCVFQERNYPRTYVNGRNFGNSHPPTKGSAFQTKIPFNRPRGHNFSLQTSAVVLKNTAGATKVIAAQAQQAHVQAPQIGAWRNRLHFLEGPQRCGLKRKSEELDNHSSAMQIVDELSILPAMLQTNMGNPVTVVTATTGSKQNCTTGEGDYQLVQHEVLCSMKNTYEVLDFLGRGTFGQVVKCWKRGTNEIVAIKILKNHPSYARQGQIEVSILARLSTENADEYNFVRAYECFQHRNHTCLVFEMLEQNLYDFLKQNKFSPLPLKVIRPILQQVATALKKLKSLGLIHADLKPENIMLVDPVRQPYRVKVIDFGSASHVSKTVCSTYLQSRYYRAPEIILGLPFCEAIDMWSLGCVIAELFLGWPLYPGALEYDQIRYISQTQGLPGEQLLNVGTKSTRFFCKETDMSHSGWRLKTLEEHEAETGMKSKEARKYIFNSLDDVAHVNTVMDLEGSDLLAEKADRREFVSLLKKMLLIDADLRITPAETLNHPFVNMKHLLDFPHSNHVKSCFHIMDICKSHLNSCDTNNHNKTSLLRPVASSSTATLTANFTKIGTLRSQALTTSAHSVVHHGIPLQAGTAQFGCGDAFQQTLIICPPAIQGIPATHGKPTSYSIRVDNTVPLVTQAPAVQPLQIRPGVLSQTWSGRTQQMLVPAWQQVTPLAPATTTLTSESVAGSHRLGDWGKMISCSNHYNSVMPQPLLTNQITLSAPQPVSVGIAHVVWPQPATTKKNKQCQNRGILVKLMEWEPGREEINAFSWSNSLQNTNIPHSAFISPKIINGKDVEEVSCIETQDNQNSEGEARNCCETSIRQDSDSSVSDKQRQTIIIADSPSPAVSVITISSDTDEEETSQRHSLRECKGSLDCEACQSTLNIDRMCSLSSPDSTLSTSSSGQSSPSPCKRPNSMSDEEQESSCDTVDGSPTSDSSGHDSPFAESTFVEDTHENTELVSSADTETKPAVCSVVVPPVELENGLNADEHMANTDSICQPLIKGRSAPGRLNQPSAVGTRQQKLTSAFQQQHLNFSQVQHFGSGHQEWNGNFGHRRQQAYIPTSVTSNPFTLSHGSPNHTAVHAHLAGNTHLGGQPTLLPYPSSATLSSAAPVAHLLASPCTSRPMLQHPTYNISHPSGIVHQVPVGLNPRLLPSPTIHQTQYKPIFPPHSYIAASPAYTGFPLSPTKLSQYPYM
Chain of LCK (P06239 whole entry, species assumed): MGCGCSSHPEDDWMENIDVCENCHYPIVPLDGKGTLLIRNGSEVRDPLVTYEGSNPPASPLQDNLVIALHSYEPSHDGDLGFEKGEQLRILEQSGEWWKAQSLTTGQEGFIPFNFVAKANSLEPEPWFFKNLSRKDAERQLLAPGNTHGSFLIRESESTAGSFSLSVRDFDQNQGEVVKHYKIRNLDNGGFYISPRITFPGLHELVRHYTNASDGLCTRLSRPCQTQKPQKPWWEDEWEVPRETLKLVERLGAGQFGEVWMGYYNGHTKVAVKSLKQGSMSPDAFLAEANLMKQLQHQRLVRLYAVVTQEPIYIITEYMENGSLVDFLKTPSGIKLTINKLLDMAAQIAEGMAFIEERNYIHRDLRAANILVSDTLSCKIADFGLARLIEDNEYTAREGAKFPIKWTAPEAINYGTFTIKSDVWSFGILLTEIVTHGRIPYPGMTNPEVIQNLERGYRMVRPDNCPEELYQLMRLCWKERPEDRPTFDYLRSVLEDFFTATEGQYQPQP
Chain of EPH-A5 (P54756 25-1037, species assumed): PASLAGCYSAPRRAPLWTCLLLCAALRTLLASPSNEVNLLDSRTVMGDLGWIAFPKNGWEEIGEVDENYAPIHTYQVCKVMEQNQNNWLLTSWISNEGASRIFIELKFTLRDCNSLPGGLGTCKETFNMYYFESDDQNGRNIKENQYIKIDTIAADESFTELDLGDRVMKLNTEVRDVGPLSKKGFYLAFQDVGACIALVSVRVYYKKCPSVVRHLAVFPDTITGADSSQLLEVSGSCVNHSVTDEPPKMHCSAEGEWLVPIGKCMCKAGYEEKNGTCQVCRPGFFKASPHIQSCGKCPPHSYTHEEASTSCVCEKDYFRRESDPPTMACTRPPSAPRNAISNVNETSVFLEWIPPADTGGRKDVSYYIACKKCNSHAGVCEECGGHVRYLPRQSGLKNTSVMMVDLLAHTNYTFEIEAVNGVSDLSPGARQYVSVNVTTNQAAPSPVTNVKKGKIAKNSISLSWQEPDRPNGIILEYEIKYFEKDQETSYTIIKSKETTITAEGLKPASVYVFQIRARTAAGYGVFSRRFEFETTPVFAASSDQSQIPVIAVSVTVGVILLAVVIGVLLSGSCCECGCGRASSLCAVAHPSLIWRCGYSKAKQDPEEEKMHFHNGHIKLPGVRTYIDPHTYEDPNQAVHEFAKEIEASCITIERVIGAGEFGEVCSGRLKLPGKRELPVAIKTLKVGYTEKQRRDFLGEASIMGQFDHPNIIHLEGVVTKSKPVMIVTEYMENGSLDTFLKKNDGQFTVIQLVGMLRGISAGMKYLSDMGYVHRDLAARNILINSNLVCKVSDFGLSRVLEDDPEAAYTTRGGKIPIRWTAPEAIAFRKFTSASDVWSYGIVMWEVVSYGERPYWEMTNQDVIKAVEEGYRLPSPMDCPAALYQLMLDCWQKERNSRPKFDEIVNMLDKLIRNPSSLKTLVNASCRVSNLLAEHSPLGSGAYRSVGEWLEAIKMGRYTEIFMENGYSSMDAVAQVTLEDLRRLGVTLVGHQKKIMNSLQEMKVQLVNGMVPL

Regarding `CSc1nc(C(=O)Nc2ccc(Oc3ccnc(N)c3Cl)c(F)c2)c(-c2ccc(F)cc2)o1` [Compound 1], the inhibition at 5 µM is 50 to 79% at BRK; under 50% at EPH-B4; under 50% on HIPK3; under 50% on LCK; under 50% on P38-b; under 50% at TRKA. In addition, on EPH-A5, the “inhibition of kinase activity, EPH-A5” value was “E (category E is less than 50%)”. At EPH-B2, the “inhibition of kinase activity, EPH-B2” value is “E (category E is less than 50%)”. Further, the “inhibition of kinase activity, LOK” value on LOK is recorded as “E (category E is less than 50%)”.
Take `CSc1nc(C(=O)Nc2ccc(Oc3cc4cnn(C)c4cc3Br)c(F)c2)c(-c2ccc(F)cc2)o1` [Compound 2]: the inhibition at 5 µM is under 50% at BRK; under 50% on EPH-B4; under 50% on HIPK3; under 50% on LCK; 50 to 79% at P38-b; under 50% at TRKA. Further, the “inhibition of kinase activity, EPH-A5” value on EPH-A5 is reported as “D (category D for 50-79)”. The “inhibition of kinase activity, EPH-B2” value at EPH-B2 is reported as “E (category E is less than 50%)”. Also, the “inhibition of kinase activity, LOK” value at LOK was “D (category D for 50-79)”.
Consider `CNC(=O)c1cc(Oc2ccc(NC(=O)c3nc(SC)oc3-c3ccc(F)cc3Cl)cc2)ccn1` [Compound 3], for which the inhibition at 5 µM at BRK is 90 to 94%; at EPH-B4 it was under 50%; on HIPK3, under 50%; at LCK, at least 95%; on P38-b, under 50%; at TRKA, 80 to 89%. Also, the “inhibition of kinase activity, EPH-A5” value on EPH-A5 was “E (category E is less than 50%)”. Besides, the “inhibition of kinase activity, EPH-B2” value on EPH-B2 is “E (category E is less than 50%)”. In addition, the “inhibition of kinase activity, LOK” value on LOK was “E (category E is less than 50%)”.
Regarding `CNC(=O)c1cc(Oc2ccc(NC(=O)c3nc(SC)oc3-c3ccc(F)c(F)c3)cc2)ccn1` [Compound 4], the inhibition at 5 µM on BRK is 50 to 79%; at EPH-B4, under 50%; at HIPK3 it was 50 to 79%; at LCK it was 80 to 89%; on P38-b it was 50 to 79%; on TRKA it was 50 to 79%. In addition, at EPH-A5, the “inhibition of kinase activity, EPH-A5” value is given as “E (category E is less than 50%)”. In addition, the “inhibition of kinase activity, EPH-B2” value on EPH-B2 is “E (category E is less than 50%)”. In addition, the “inhibition of kinase activity, LOK” value on LOK is listed as “D (category D for 50-79)”.
On to `CNC(=O)c1cc(Oc2ccc(NC(=O)c3nc(SC)oc3-c3ccc(Cl)s3)cc2)ccn1` [Compound 5], for which the inhibition at 5 µM at BRK is 50 to 79%; at EPH-B4, under 50%; at HIPK3, under 50%; at LCK, 50 to 79%; on P38-b, under 50%; at TRKA it was under 50%. In addition, the “inhibition of kinase activity, EPH-A5” value on EPH-A5 is recorded as “E (category E is less than 50%)”. Also, the “inhibition of kinase activity, EPH-B2” value on EPH-B2 is given as “E (category E is less than 50%)”. Besides, the “inhibition of kinase activity, LOK” value on LOK is “E (category E is less than 50%)”.
In the case of `CNC(=O)c1cc(Oc2ccc(NC(=O)c3nc(SC)oc3-c3ccc(F)cc3F)cc2)ccn1` [Compound 6], the inhibition at 5 µM on BRK was at least 95%; at EPH-B4, under 50%; on HIPK3, under 50%; on LCK, at least 95%; at P38-b, under 50%; at TRKA, 80 to 89%. Also, the “inhibition of kinase activity, EPH-A5” value on EPH-A5 was “E (category E is less than 50%)”. Besides, on EPH-B2, the “inhibition of kinase activity, EPH-B2” value is reported as “E (category E is less than 50%)”. Further, on LOK, the “inhibition of kinase activity, LOK” value was “E (category E is less than 50%)”.
For the compound `CNC(=O)c1cc(Oc2ccc(NC(=O)c3nc(SC)oc3-c3ccc(OC)cc3)cc2)ccn1` [Compound 7], the inhibition at 5 µM on BRK is under 50%; at EPH-B4 it was under 50%; at HIPK3, under 50%; at LCK, at least 95%; on P38-b it was under 50%; on TRKA, under 50%. The “inhibition of kinase activity, EPH-A5” value on EPH-A5 is listed as “E (category E is less than 50%)”. In addition, the “inhibition of kinase activity, EPH-B2” value at EPH-B2 is “E (category E is less than 50%)”. Moreover, the “inhibition of kinase activity, LOK” value at LOK is listed as “C (C=80%-89% at 5 um)”.
Regarding `CSc1nc(C(=O)Nc2ccc(Oc3ccnc(-c4cnn(C)c4)c3)c(F)c2)c(-c2ccc(F)cc2)o1` [Compound 11], the inhibition at 5 µM was at least 95% at BRK; 80 to 89% on EPH-B4; under 50% at HIPK3; 90 to 94% on LCK; 80 to 89% at P38-b; 50 to 79% at TRKA. Also, at EPH-A5, the “inhibition of kinase activity, EPH-A5” value is on record as “C (C=80%-89% at 5 um)”. For the same compound, the “inhibition of kinase activity, EPH-B2” value on EPH-B2 was “B (B=90%-94% at 5 um)”. Further, the “inhibition of kinase activity, LOK” value on LOK was “B (B=90%-94% at 5 um)”.
`CNC(=O)c1cc(Oc2ccc(NC(=O)c3nc(SC)oc3-c3ccc(F)cc3F)cc2F)ccn1` [Compound 12]: the inhibition at 5 µM is at least 95% on BRK; 50 to 79% at EPH-B4; 50 to 79% at HIPK3; at least 95% on LCK; under 50% on P38-b; 80 to 89% on TRKA. The “inhibition of kinase activity, EPH-A5” value at EPH-A5 is listed as “D (category D for 50-79)”. Moreover, the “inhibition of kinase activity, EPH-B2” value on EPH-B2 was “D (category D for 50-79)”. For the same compound, the “inhibition of kinase activity, LOK” value on LOK is on record as “D (category D for 50-79)”.
For `CNC(=O)c1cc(Oc2ccc(NC(=O)c3nc(S(C)(=O)=O)sc3-c3ccc(F)cc3)cc2F)ccn1` [Compound 13], the inhibition at 5 µM at BRK was 50 to 79%; on EPH-B4, 50 to 79%; at HIPK3 it was 80 to 89%; on LCK, 90 to 94%; at P38-b, under 50%; at TRKA, 50 to 79%. The “inhibition of kinase activity, EPH-A5” value at EPH-A5 is “D (category D for 50-79)”. Besides, the “inhibition of kinase activity, EPH-B2” value on EPH-B2 is “E (category E is less than 50%)”. Also, on LOK, the “inhibition of kinase activity, LOK” value is on record as “E (category E is less than 50%)”.

The values are drawn from patent US11629143B2, “HipK4 inhibitors and uses thereof” (Vibliome Therapeutics, LLC, priority 2020, dated 2023).
